Measured values as given in US9180212B2, “β-amyloid plaque imaging agents” (The Regents of the University of California, priority 2012, dated 2015).
Entries after “also recorded” stand apart in the source; their conditions may differ.

Tests used:
[1] = test system: brown adipose tissue (BAT) metabolic activity; assay: ^18F-FDG PET/CT uptake in interscapular BAT of rats; assay type: in vivo, Sprague-Dawley rats
Text: (§1) In still further experiments, binding/uptake of contemplated compounds to/by NET was investigated in adipose tissue, and especially brown adipose tissue. It should be appreciated that due to the innervation of brown adipose tissue (BAT) with neurotransmitter, norepinephrine is essential for regulation of thermogenesis, and thus has a role in obesity and diabetes. Norepinephrine acts by activating β3-adrenoceptor to increase BAT metabolic activity measurable using ^18F-FDG PET. Norepinephrine transporter (NET) inhibitors such as atomoxetine play an important role in BAT activity by increasing norepinephrine levels.
(§2) Male Sprague-Dawley rats were fasted for 24 hrs prior to ^18F-FDG administration. Rats were administered i.v. ˜0.3 mCi ^18F-FDG under 2% isoflurane anesthesia. The same rats were treated with atomoxetine 1 mg/kg, 30 mins before ^18F-FDG administration. Rats were awake for 60 mins and subsequently anesthetized for upper-body Inveon MicroPET/CT scan. To evaluate whether enhanced ^18F-FDG uptake in activated BAT could be reduced by pharmacologic interventions, propranolol ([…]) 5 mg/kg was given intraperitoneally in anesthetized rats, 30 minutes prior to atomoxetine administration. For NET imaging, ^11C-TAZA (4-^11C-methylamino-4′-dimethylaminoazobenzene) and ^11C-Dalene (4-methylamino-4′-(N—^11C-methyl-N-methylamino)stilbene) were administered iv (˜0.5-3 mCi) and scanned in Inveon PET/CT for 90 mins. Competition studies were done with atomoxetine (preinjection, 1-2 mg/kg). PET/CT data was analysed using IRW and PMOD.

[2] = target: T1, amyloid plaques (Homo sapiens, UniProt P05067); assay: ^3H-PIB competition binding in human Alzheimers brain homogenate
T1 construct: target the polymeric form of the β-amyloid peptide that is associated with senile plaques; from tissue; host or cells: human Alzheimer's disease brain homogenate (post mortem)
T1 sequence (P05067 672-713 limits assumed): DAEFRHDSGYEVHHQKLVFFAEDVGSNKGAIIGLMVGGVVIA

[3] = target: T2, SP (senile plaques) in hippocampus of AD patients (Homo sapiens, UniProt P05067); assay: In vitro autoradiography of human hippocampus slices (AD vs control), senile plaque imaging; assay type: binding; conditions: for Binding to SP present in AD brains compared to the normal controls (in words): autoradiography
T2 construct: target the polymeric form of the β-amyloid peptide that is associated with senile plaques; from tissue; host or cells: 7 micron frozen sections of hippocampus of AD patients and control brains (UCI-ADRC repository)
T2 sequence (P05067 672-713 limits assumed): as above
Text: Human post-mortem Studies: We used post mortem human brain specimens from the UCI-ADRC Brain tissue repository for in vitro experiments. Age and gender matched AD brain and control brain tissue were used. Control cases consisted of clinically assessed nondemented individuals ranging in age from 70-90 years of age. AD brain samples were selected for end-stage pathology (based upon comments by the neuropathologist and Braak & Braak stage of VI. We matched each AD case with a similarly aged control case. AD cases, were selected on the basis as having a clinic visit within 1 year of death. Frozen hippocampus and frontal cortex, regions vulnerable to AD pathology, were selected for these studies. Sections of the cerebellum were used as a measure of low/nonspecific binding. Chunks of frozen tissue were dissected for immunohistochemical and autoradiographic techniques, as well as for biochemical experiments.
Serial cryostat sections at 5-10 μm were used. The first set of sections was used to establish the extent of senile plaque and neurofibrillary tangle formation using immunohisto-chemistry and histological techniques. Antibodies against Aβ1-16, Aβ1-40 and Aβ1-42 were used to detect Aβ.
In vitro autoradiography studies were performed on 7 micron slices of hippocampus of AD patients (n=2) and control brains (n=2). Hippocampus slices were incubated with the radiotracer (10-25 μCi/cc) in 40% ethanol-water for ½ hour.
Binding to norepinephrine transporters (NET) were further evaluated in normal rats using PET/CT. Radiosynthesis was carried out by reacting 4-amino-4′-dimethylaminoazobenzene (1 mg/0.5 cc acetone for ^11C-TAZA) and 4-methylamino-4′-(N-methylamino)stilbene (1 mg/0.5 cc acetone for ^11C-Dalene) with 11C-methyltriflate prepared in the GE FXCPro synthesis unit. ^11C-Methyltriflate was trapped at −20° C., subsequently heated for 5 mins at 80° C. and purified using HPLC. In vitro autoradiography studies were performed on 7 micron slices of hippocampus of AD patients and control brains.
(§3) Slices were then washed and exposed on to phosphor screens and slides were analysed by Optiquant image analysis program for SP binding Digital light units/mm^2 (DLU/mm^2). Sprague-Dawley rats were scanned after IV injection of ^11C-TAZA and ^11C-Dalene in Inveon PET/CT and displacement studies were done with atomoxetine (1 mg/kg). PET images were analyzed using PMOD.

[4] = test system: norepinephrine transporters (NET); assay: Rat brain PET with atomoxetine pre-injection (NET binding/uptake); assay type: in vivo, Sprague-Dawley rats
Method: Based on earlier experimental observations (not shown), the inventors contemplated that the compounds presented herein not only bind with high specificity to β-amyloid, but also with similar high specificity to the NET. To investigate binding to/uptake by the NET, the effect of atomoxetine (ATX, a selective norepinephrine reuptake inhibitor) on the kinetics of Dalene and TAZA was tested. More specifically, Sprague-Dawley rats (308-468 g) received two 90 min PET scans each on two separate days (1-4 weeks apart) with an Inveon scanner. On first day each rat received a baseline scan, one with [^11C]Dalene and the other with [^11C]TAZA (96±8 MBq). The second day each animal was pre-injected i.v. with a 50 μl bolus of ATX (1-2 mg/Kg), 17 min before [^11C]Dalene and 2 min before [^11C]TAZA (33±7 MBq). The images were reconstructed dynamically in 25 frames (4×0.5 min, 8×1 min, 5×2 min, 2×5 min, 6×10 min). Each subject received a CT scan that was used for attenuation and scatter correction. Images were normalized to Paxinos & Watson space via co-registration with an MR rat template. Common regions of interest were drawn on the MR template and placed on brainstem, thalamus (Tha), and midbrain (Mid), brain regions with highest uptake as well as anterior cingulate cortex area 1 (Cg1), region with low NET density and which was chosen as a reference based on previous studies. Time activity curves (TACs) from all regions were analyzed in PMOD using Logan non-invasive method with Cg1's k2′ parameter estimated by fitting of brainstem data to MRTM.
as §3, with “PMOD. […] Presence of SP in the AD brains were confirmed using 4G8 antibody immunostaining for Aβ-amyloid. […] Ratios of brain stem to cingulate gyms (used as reference region) was >2.” for “PMOD.”

[5] = test system: NET in brown adipose tissue (BAT); assay: Rat PET/CT NET imaging in brown adipose tissue; assay type: in vivo, Sprague-Dawley rats; conditions: atomoxetine preinjection 1-2 mg/kg
Text: as §1
as §2, with “For NET imaging, ^11C-TAZA (4-^11C-methylamino-4′-dimethylaminoazobenzene) and ^11C-Dalene (4-methylamino-4′-(N—^11C-methyl-N-methylamino)stilbene) were administered iv (˜0.5-3 mCi) and scanned in Inveon PET/CT for 90 mins. Competition studies were done with atomoxetine (preinjection, 1-2 mg/kg).” left out

[6] = cited from earlier work

Compound: CNCC[C@@H](Oc1ccccc1C)c1ccccc1 [Atomoxetine, atomoxetine]
- increase of average ^18F-FDG uptake of IBAT compared to controls ([1]; atomoxetine 1 mg/kg, 30 mins before ^18F-FDG): > 15 times
- average ^18F-FDG uptake of IBAT ([1]; atomoxetine 1 mg/kg, 30 mins before ^18F-FDG, controls 23.9±8.7): 365±170 kBq/cc

Compound: CC(C)NCC(O)COc1cccc2ccccc12 (centres unmarked) [Propranolol, propranolol]
- effect on average ^18F-FDG uptake of IBAT (in words) ([1]; propranolol 5 mg/kg intraperitoneally, 30 minutes prior to atomoxetine): reduced

Compound: CNc1ccc(N=Nc2ccc(N(C)C)cc2)cc1 [TAZA]
- IC50 ([2]; human Alzheimers brain homogenate tissue in 10% alcohol in PBS buffer, ^3H-PIB, read-out: binding affinity (IC50)): 12.8 nM
- times better in binding to amyloid plaques compared to PIB ([2]; human brain tissue, from IC50 values): ~10 times

Compound: CN(C)c1ccc(C=Cc2ccc(N[11CH3])cc2)cc1 [^11C-Dalene, 4-^11C-methylamino-4′-(N,N-dimethylamino)stilbene]
- Displacement of radiotracer by unlabeled PIB (in words) ([3]; 10 μM PIB, hippocampus slices): not complete; also recorded: displaced
- Binding to SP present in AD brains compared to the normal controls (in words) ([3]; hippocampus slices): bound specifically
- Effect of atomoxetine on binding in NET brain regions (in words) ([4]; rat, in vivo): reduced the binding
- baseline BPND (Mid) ([4]; rat, in vivo): 0.91
- baseline BPND (Tha) ([4]; rat, in vivo): 0.86
- baseline BPND (brainstem) ([4]; rat, in vivo): 1.42
- change in BPND in ATX condition (Mid) ([4]; rat, in vivo): 5.4%
- change in BPND in ATX condition (Tha) ([4]; rat, in vivo): −12%
- change in BPND in ATX condition (brainstem) ([4]; rat, in vivo): −18%
- peak uptake in ATX condition relative to control ([4]; rat, in vivo): 14 fold
- time at which ratio target/reference reached a constant level ([4]; rat, in vivo): 20 min
- reduction of IBAT binding by atomoxetine [5]: 35%

Compound: CN(C)c1ccc(N=Nc2ccc(N[11CH3])cc2)cc1 [^11C-TAZA, 4-^11C-methylamino-4′-dimethylamino-azobenzene]
- Displacement of radiotracer by PIB ([3]; 10 μM PIB, hippocampus slices): > 80%
- Displacement of radiotracer by unlabeled PIB (in words) ([3]; 10 μM PIB, hippocampus slices): displaced
- Binding to SP compared with the other radiotracers (in words) ([3]; ^11C-TAZA vs ^11C-Dalene and ^11C-PIB): higher specific binding component; also recorded: highest binding
- Binding to SP present in AD brains compared to the normal controls (in words) ([3]; hippocampus slices): bound specifically
- change in BPND in ATX condition (brainstem) ([4]; ATX 1-2 mg/Kg i.v. pre-injection): 11%
- Effect of atomoxetine on binding in NET brain regions (in words) ([4]; atomoxetine 1 mg/kg): reduced the binding
- time at which ratio target/reference reached a constant level ([4]; baseline condition, post tracer injection): 20 min
- baseline BPND (brainstem) ([4]; baseline scan, Logan non-invasive method, Cg1 reference): 0.7
- peak uptake in ATX condition relative to control ([4]; brainstem, ATX 1-2 mg/Kg i.v. pre-injection): 5 fold
- baseline BPND (Mid) ([4]; midbrain, baseline scan, Cg1 reference): 0.50
- change in BPND in ATX condition (Mid) ([4]; midbrain, ATX 1-2 mg/Kg i.v. pre-injection): 18%
- baseline BPND (Tha) ([4]; thalamus, baseline scan, Cg1 reference): 0.41
- change in BPND in ATX condition (Tha) ([4]; thalamus, ATX 1-2 mg/Kg i.v. pre-injection): 6%
- reduction of IBAT binding by atomoxetine [5]: 60%

Compound: CC(=C(C#N)C#N)c1ccc2cc(N(C)CC[18F])ccc2c1 [^18F-FDDNP, 2-(1-{6-[(2-[^18F]fluoroethyl)(methyl)amino]-2-naphtyl}ethylidene)malonitrile]
- log P [6]: > 3
